Key:
Albumin [1] = target: T1, Albumin (Homo sapiens, UniProt P02768); assay: Second order rate constant after incubation with human serum albumin (HSA) at pH 7.4 in the presence of 5 equiv of myristic acid
Albumin [2] = target: T1, Albumin; assay: Second order rate constant after incubation with human serum albumin (HSA) at pH 7.4 in the absence of myristic acid
[3] = Antiproliferative activity assessed in the RENCA murine renal cell carcinoma using the BrdU; format: functional, cell-based, Mus musculus
MCF7 = assay: Antiproliferative activity assessed in the MCF-7 human mamma carcinoma using the BrdU; format: functional, cell-based
LXFL 529 = assay: Antiproliferative activity assessed in the LXFL529 human lung carcinoma using the BrdU; format: functional, cell-based

T1 sequence (P02768 whole entry): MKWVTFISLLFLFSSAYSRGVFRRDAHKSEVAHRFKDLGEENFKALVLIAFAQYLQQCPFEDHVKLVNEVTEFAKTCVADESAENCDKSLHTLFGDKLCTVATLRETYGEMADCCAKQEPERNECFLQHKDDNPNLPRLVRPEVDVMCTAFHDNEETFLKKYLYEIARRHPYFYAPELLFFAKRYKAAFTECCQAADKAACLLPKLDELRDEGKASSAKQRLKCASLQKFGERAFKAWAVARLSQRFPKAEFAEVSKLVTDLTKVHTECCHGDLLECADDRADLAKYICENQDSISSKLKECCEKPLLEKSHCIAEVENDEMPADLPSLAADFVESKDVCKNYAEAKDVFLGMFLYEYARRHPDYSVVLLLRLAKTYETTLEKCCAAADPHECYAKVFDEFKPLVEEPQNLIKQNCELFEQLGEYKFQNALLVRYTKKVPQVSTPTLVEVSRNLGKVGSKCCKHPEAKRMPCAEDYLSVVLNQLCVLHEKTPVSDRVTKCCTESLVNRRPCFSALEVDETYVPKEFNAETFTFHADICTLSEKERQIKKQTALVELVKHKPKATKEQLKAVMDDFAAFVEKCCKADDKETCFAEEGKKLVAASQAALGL

SMILES | k2 (Albumin [1]) [M⁻¹ s⁻¹] | k2 (Albumin [2]) [M⁻¹ s⁻¹] | IC50 (MCF7; Homo sapiens, MCF7) [nM] | IC50 (LXFL 529; Homo sapiens, LXFL 529) [nM] | also measured
COc1cccc2c1C(=O)c1c(O)c3c(c(O)c1C2=O)C[C@@](O)(/C(CO)=N/NC(=O)CCN1C(=O)C=CC1=O)C[C@]3(C)COC1C[C@H](N)[C@](C)(O)[C@H](C)O1.Cl (some centres undefined) | 17.83 | 23.83 | – | – | –
COc1cccc2c1C(=O)c1c(O)c3c(c(O)c1C2=O)C[C@@](O)(/C(CO)=N/NC(=O)CCCCCN1C(=O)C=CC1=O)C[C@]3(C)COC1C[C@H](N)[C@](C)(O)[C@H](C)O1 (stereo in doubt) | – | – | 1000 | 400 | IC50 ([3]; Mus musculus): 900 nM
COc1cccc2c1C(=O)c1c(O)c3c(c(O)c1C2=O)C[C@@](O)(/C(CO)=N/NC(=O)CCCCCN1C(=O)CCC1=O)C[C@]3(C)COC1C[C@H](N)[C@](C)(O)[C@H](C)O1 (some centres undefined) | – | – | 1100 | 500 | IC50 ([3]; Mus musculus): 700 nM
COc1cccc2c1C(=O)c1c(O)c3c(c(O)c1C2=O)C[C@@](O)(/C(CO)=N/NC(=O)CCCCCCCN1C(=O)C=CC1=O)C[C@]3(C)COC1C[C@H](N)[C@](C)(O)[C@H](C)O1.Cl (some centres undefined) | 16 | 10 | – | – | –
COc1cccc2c1C(=O)c1c(O)c3c(c(O)c1C2=O)C[C@@](O)(/C(CO)=N/NC(=O)CCCCCN1C(=O)C=CC1=O)C[C@]3(C)COC1C[C@H](N)[C@](C)(O)[C@H](C)O1.Cl (stereo in doubt; 3) | 37.5 | 17.33 | – | – | IC50 [3]: 1000 nM; IC50 (MCF7; mcf7): 1100 nM; IC50 (LXFL 529; lxfl 529): 500 nM
COc1cccc2c1C(=O)c1c(O)c3c(c(O)c1C2=O)C[C@@](O)(/C(CO)=N/NC(=O)CCCN1C(=O)C=CC1=O)C[C@]3(C)COC1C[C@H](N)[C@](C)(O)[C@H](C)O1.Cl (some centres undefined) | 19 | 25.17 | – | – | –
COc1cccc2c1C(=O)c1c(O)c3c(c(O)c1C2=O)C[C@@](O)(C(=O)CO)C[C@@H]3O[C@H]1C[C@H](N)[C@H](O)[C@H](C)O1 [DOXORUBICIN] | – | – | 40 | 40 | –
